Experimental data taken from ChEMBL document CHEMBL1139921, “Synthesis and biological activity of 2-alkylbenzimidazoles bearing a N-phenylpyrrole moiety as novel angiotensin II AT1 receptor antagonists” (Bioorg Med Chem Lett, 2007).
The source made the active and inactive calls. No cut-off for these calls is given here.

Columns and labels:
[1] = biological target: T1, Type-1 angiotensin II receptor (Oryctolagus cuniculus, UniProt P34976); assay: Antagonist activity at AT1 receptor assessed inhibition of angiotensin-2-induced contraction of rabbit thoracic aortic rings; format: functional; settings: read-out: pA2 (converted)
T1 sequence (P34976 whole entry): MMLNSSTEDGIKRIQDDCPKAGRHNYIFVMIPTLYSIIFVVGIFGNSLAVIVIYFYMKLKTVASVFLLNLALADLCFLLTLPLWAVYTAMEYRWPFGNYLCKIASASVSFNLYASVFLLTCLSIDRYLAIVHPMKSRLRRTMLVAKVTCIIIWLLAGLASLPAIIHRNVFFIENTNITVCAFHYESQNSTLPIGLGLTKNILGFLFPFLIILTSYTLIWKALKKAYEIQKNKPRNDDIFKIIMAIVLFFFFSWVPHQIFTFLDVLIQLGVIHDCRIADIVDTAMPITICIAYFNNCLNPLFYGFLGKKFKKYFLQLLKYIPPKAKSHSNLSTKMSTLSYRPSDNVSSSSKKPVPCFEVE

[2] = biological target: T2, Type-1 angiotensin II receptor (Bos taurus, UniProt P25104); assay: Displacement of [125I]angiotensin-2 from bovine adrenal cortex AT1 receptor; format: tissue-based
T2 sequence (P25104 whole entry): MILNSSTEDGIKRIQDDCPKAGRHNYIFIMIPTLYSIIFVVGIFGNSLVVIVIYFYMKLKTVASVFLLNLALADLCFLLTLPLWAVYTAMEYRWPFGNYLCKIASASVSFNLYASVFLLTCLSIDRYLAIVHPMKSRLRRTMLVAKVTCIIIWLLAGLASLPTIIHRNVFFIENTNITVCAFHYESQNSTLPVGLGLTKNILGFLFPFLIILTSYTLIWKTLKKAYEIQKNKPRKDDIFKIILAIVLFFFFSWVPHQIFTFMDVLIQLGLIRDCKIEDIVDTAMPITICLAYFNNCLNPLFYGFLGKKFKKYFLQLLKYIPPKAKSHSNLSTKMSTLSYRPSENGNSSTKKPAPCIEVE

Rattus norvegicus [3] = assay: Reduction of mean arterial pressure in spontaneously hypertensive rat at 1 mg/kg, po; format: functional, organism-based; parameters: dose 1 mg/kg; settings: Artery
[4] = biological target: T3, Type-1 angiotensin II receptor (Oryctolagus cuniculus) (UniProt P34976); assay: Antagonist activity at AT1 receptor assessed inhibition of histamine-induced contraction of rabbit thoracic aortic rings; format: functional
T3 sequence (whole entry): T1 sequence (P34976 whole entry)

[5] = biological target: T3, Type-1 angiotensin II receptor (Oryctolagus cuniculus); assay: Antagonist activity at AT1 receptor assessed inhibition of KCl-induced contraction of rabbit thoracic aortic rings; format: functional
Rattus norvegicus [6] = assay: Decrease in mean arterial pressure in po dosed spontaneously hypertensive rat; format: functional, organism-based; settings: Artery
[7] = biological target: T3, Type-1 angiotensin II receptor (Oryctolagus cuniculus); assay: Antagonist activity at AT1 receptor assessed inhibition of norepinephrine-induced contraction of rabbit thoracic aortic rings; format: functional
Rattus norvegicus [8] = assay: Inhibition of angiotensin-2-induced pressor response in normotensive rat at 1 mg/kg, po; format: functional, organism-based; parameters: dose 1 mg/kg

Row | Kb [1] | IC50 [2] | Activity [4] | Activity [5] | Activity [7] | SMILES | Activity (Rattus norvegicus [3]) | Activity (Rattus norvegicus [6]) | Activity (Rattus norvegicus [8])
1 | 0.0316 µM | 0.14 µM |  |  |  | CCc1nc2cccc(C(=O)OC)c2n1Cc1ccc(-n2cccc2-c2nnn[nH]2)cc1 |  |  | 
2 | 0.1 µM | 0.2 µM |  |  |  | COC(=O)c1cccc2nc(C)n(Cc3ccc(-n4cccc4-c4nnn[nH]4)cc3)c12 |  |  | 
3 | 0.0126 µM | 0.032 µM |  |  |  | CCCc1nc2cccc(C(=O)OC)c2n1Cc1ccc(-n2cccc2-c2nnn[nH]2)cc1 |  |  | 
4 | 0.00398 µM | 0.0098 µM | inactive | inactive | inactive | CCCCc1nc2cccc(C(=O)OC)c2n1Cc1ccc(-n2cccc2-c2nnn[nH]2)cc1 | Active | Dose-dependent effect | Active

Continued, molecule first:

Row | SMILES | Kb [1] | IC50 [2] | Activity [4] | Activity [5] | Activity [7] | Activity (Rattus norvegicus [3]) | Activity (Rattus norvegicus [6]) | Activity (Rattus norvegicus [8])
5 | CCCc1nc2cccc(C(=O)OCC)c2n1Cc1ccc(-n2cccc2-c2nnn[nH]2)cc1 | 0.0794 µM | 0.041 µM |  |  |  |  |  | 
6 | CCCCc1nc2cccc(C(=O)O)c2n1Cc1ccc(-n2cccc2-c2nnn[nH]2)cc1 | 0.00316 µM | 0.0069 µM | inactive | inactive | inactive | Active | Dose-dependent effect | Active
7 | CCCCc1nc2cccc(C(=O)O)c2n1Cc1ccc(-n2cccc2C(=O)O)cc1 | 0.01 µM | 0.033 µM |  |  |  |  |  | 
8 | CCCCc1nc2cccc(C(=O)OCC)c2n1Cc1ccc(-n2cccc2-c2nnn[nH]2)cc1 | 0.0158 µM | 0.019 µM |  |  |  |  |  | 
9 | Cc1nc2cccc(C(=O)O)c2n1Cc1ccc(-n2cccc2C(=O)O)cc1 | 1.26 µM | 0.25 µM |  |  |  |  |  | 
10 | CCc1nc2cccc(C(=O)O)c2n1Cc1ccc(-n2cccc2C(=O)O)cc1 | 0.316 µM | 0.16 µM |  |  |  |  |  | 
11 | CCCc1nc2cccc(C(=O)O)c2n1Cc1ccc(-n2cccc2-c2nnn[nH]2)cc1 | 0.00631 µM | 0.016 µM |  |  |  |  |  | 
12 | CCCc1nc2cccc(C(=O)O)c2n1Cc1ccc(-n2cccc2C(=O)O)cc1 | 0.1 µM | 0.092 µM |  |  |  |  |  | 
